The structures appear in SMILES notation.

A word on the Ki: it is a measure of affinity in units of concentration, obtained from inhibition or displacement.

This assay concerns the target T1, human NEP (Homo sapiens, UniProt P08473).
T1 construct: purchased R&D Systems, Minneapolis, Minn; 1182-ZN
The experiment in a line: In vitro enzyme inhibition assay at human NEP (fluorogenic peptide substrate). In kind it is biochemical. The note with it: pKi values at human NEP (recombinant), given as ranges. How it is done: The inhibitory activities of compounds at human and rat neprilysin (EC 3.4.24.11; NEP) and human angiotensin converting enzyme (ACE) were determined using in vitro assays as described below.
Recombinant human NEP and recombinant human ACE were obtained commercially (R&D Systems, Minneapolis, Minn., catalog numbers 1182-ZN and 929-ZN, respectively). The fluorogenic peptide substrate Mca-D-Arg-Arg-Leu-Dap-(Dnp)-OH (Medeiros et al. (1997) Braz. J. Med. Biol. Res. 30:1157-62; Anaspec, San Jose, Calif.) and Abz-Phe-Arg-Lys(Dnp)-Pro-OH (Araujo et al. (2000) Biochemistry 39:8519-8525; Bachem, Torrance, Calif.) were used in the NEP and ACE assays respectively.
The assays were performed in 384-well white opaque plates at 37° C. using the fluorogenic peptide substrates at a concentration of 10 μM in Assay Buffer (NEP: 50 mM HEPES, pH 7.5, 100 mM NaCl, 0.01% polyethylene glycol sorbitan monolaurate (Tween-20), […]; ACE: 50 mM HEPES, pH 7.5, 100 mM NaCl, 0.01% Tween-20, 1 μM ZnSO4).
Test compounds were assayed over the range of concentrations from 10 μM to 20 pM. Test compounds were added to the enzymes and incubated for 30 minute at 37° C. prior to initiating the reaction by the addition of substrate. Reactions were terminated after 20 minutes of incubation at 37° C. by the addition of glacial acetic acid to a final concentration of 3.6% (v/v).
Plates were read on a fluorometer with excitation and emission wavelengths set to 320 nm and 405 nm, respectively. Inhibition constants were obtained by nonlinear regression of the data using the equation (GraphPad Software, Inc., San Diego, Calif.): ν=ν0/[1+(I/K′)] where ν is the reaction rate, ν0 is the uninhibited reaction rate, I is the inhibitor concentration and K′ is the apparent inhibition constant.
Compounds of the invention were tested in this assay and found to have pKi values at human NEP as follows.

T1 sequence (P08473 52-750 limits assumed): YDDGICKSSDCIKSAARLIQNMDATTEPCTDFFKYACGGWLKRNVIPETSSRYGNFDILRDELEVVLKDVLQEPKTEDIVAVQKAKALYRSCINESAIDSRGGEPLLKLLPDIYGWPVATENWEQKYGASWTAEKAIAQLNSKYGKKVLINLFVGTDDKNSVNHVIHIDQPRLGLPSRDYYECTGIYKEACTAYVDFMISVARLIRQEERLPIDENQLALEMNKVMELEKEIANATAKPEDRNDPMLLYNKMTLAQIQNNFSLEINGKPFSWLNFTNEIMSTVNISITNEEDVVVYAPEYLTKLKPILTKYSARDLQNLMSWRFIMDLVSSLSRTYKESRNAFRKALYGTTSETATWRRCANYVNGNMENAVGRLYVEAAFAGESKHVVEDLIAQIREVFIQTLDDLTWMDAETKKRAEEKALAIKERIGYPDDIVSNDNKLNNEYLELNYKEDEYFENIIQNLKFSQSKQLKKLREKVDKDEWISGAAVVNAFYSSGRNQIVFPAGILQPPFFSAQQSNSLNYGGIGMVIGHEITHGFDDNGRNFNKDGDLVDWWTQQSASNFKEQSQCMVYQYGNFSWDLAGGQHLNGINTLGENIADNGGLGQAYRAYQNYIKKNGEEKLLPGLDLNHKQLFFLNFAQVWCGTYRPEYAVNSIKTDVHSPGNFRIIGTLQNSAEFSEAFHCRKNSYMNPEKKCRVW

`C[C@@](O)(C[C@@H](Cc1ccc(-c2ccccc2)cc1)NC(=O)c1cnn[nH]1)C(=O)O` [Example 1B, (2R,4R)-5-Biphenyl-4-yl-2-hydroxy-2-methyl-4-[(3H-[1,2,3]triazole-4-carbonyl)-amino]-pentanoic acid]: the Ki is 1.26 to 10 nM. To `C[C@](O)(C[C@@H](Cc1ccc(-c2ccccc2)cc1)NC(=O)c1cnn[nH]1)C(=O)O` [Example 2-1, (2S,4R)-5-Biphenyl-4-yl-2-hydroxy-2-methyl-4-[(3H-[1,2,3]triazole-4-carbonyl)-amino]-pentanoic acid] belongs 12.6 to 100 nM. The figure for `CC(O)(C[C@@H](Cc1ccc(-c2ccccc2)cc1)NC(=O)c1nc[nH]n1)C(=O)O` (stereo partly drawn) [Example 2-2, (R)-5-Biphenyl-4-yl-2-hydroxy-2-methyl-4-[(2H-[1,2,4]triazole-3-carbonyl)-amino]-pentanoic acid] is 12.6 to 100 nM; for `CC(O)(C[C@@H](Cc1ccc(-c2ccccc2)cc1)NC(=O)c1n[nH]c(Cl)n1)C(=O)O` (stereo partly drawn) [Example 2-3, (R)-5-Biphenyl-4-yl-4-[(5-chloro-2H-[1,2,4]triazole-3-carbonyl)-amino]-2-hydroxy-2-methyl-pentanoic acid] it is 12.6 to 100 nM. With `CC(O)(C[C@@H](Cc1ccc(-c2ccccc2)cc1)NC(=O)c1cc(F)c2nn[nH]c2c1)C(=O)O` (stereo partly drawn) [Example 2-4, (R)-5-Biphenyl-4-yl-4-[(7-fluoro-3H-benzotriazole-5-carbonyl)-amino]-2-hydroxy-2-methyl-pentanoic acid], the Ki was 1.26 to 10 nM. As for `CC(O)(C[C@@H](Cc1ccc(-c2ccccc2)cc1)NC(=O)c1cc(Cl)c2nn[nH]c2c1)C(=O)O` (stereo partly drawn) [Example 2-5, (R)-5-Biphenyl-4-yl-4-[(7-chloro-3H-benzotriazole-5-carbonyl)-amino]-2-hydroxy-2-methyl-pentanoic acid], the Ki was 1.26 to 10 nM.

For `C[C@](O)(C[C@@H](Cc1ccc(-c2ccccc2)cc1)NC(=O)c1cnc2nn[nH]c2c1)C(=O)O` [Example 2-6, (2S,4R)-5-Biphenyl-4-yl-2-hydroxy-2-methyl-4-[(1H-[1,2,3]triazolo[4,5-b]pyridine-6-carbonyl)-amino]-pentanoic acid], the Ki was 12.6 to 100 nM. On to `CC(O)(C[C@@H](Cc1ccc(-c2ccccc2)cc1)NC(=O)c1cc(O)no1)C(=O)O` (stereo partly drawn) [Example 2-7, (R)-5-Biphenyl-4-yl-2-hydroxy-4-[(3-hydroxy-isoxazole-5-carbonyl)-amino]-2-methyl-pentanoic acid], for which the Ki is not above 1 nM. The figure for `C[C@@](O)(C[C@@H](Cc1ccc(-c2ccccc2)cc1)NC(=O)c1cnc(O)nc1)C(=O)O` [Example 2-9, (2R,4R)-5-Biphenyl-4-yl-2-hydroxy-4-[(2-hydroxy-pyrimidine-5-carbonyl)-amino]-2-methyl-pentanoic acid] is not above 1 nM; for `C[C@](O)(C[C@@H](Cc1ccc(-c2ccccc2)cc1)NC(=O)c1cnc(O)nc1)C(=O)O` [Example 2-10, (2S,4R)-5-Biphenyl-4-yl-2-hydroxy-4-[(2-hydroxy-pyrimidine-5-carbonyl)-amino]-2-methyl-pentanoic acid] it is 1.26 to 10 nM. Take `C[C@](O)(C[C@@H](Cc1ccc(-c2ccccc2)cc1)NC(=O)c1cc(C(=O)O)[nH]n1)C(=O)O` [Example 2-11, 5-((1R,3S)-1-Biphenyl-4-ylmethyl-3-carboxy-3-hydroxy-butylcarbamoyl)-2H-pyrazole-3-carboxylic acid]: the Ki was 1.26 to 10 nM. To `CC(O)(C[C@@H](Cc1ccc(-c2ccccc2)cc1)NC(=O)c1cc(O)n[nH]1)C(=O)O` (stereo partly drawn) [Example 2-12, (R)-5-Biphenyl-4-yl-2-hydroxy-4-[(5-hydroxy-2H-pyrazole-3-carbonyl)-amino]-2-methyl-pentanoic acid] belongs 1.26 to 10 nM; to `C[C@@](O)(C[C@@H](Cc1ccc(-c2ccccc2)cc1)NC(=O)c1cc(C(=O)O)n[nH]1)C(=O)O` [Example 2-13, 5-((1R,3R)-1-Biphenyl-4-ylmethyl-3-carboxy-3-hydroxy-butylcarbamoyl)-1H-pyrazole-3-carboxylic acid], not above 1 nM. To `CC(O)(CN(Cc1ccc(-c2ccccc2)cc1)NC(=O)c1cc(O)no1)C(=O)O` (stereo not drawn) [Example 3B, 3-[N-Biphenyl-4-ylmethyl-N′-(3-hydroxy-isoxazole-5-carbonyl)-hydrazino]-2-hydroxy-2-methyl-propionic acid] belongs 1.26 to 10 nM; to `CC(O)(CN(Cc1ccc(-c2ccccc2)cc1)NC(=O)c1cnn[nH]1)C(=O)O` (stereo not drawn) [Example 4-1, 3-[N-Biphenyl-4-ylmethyl-N′-(3H-[1,2,3]triazole-4-carbonyl)-hydrazino]-2-hydroxy-2-methyl-propionic acid], 12.6 to 100 nM.

For `CC(O)(CN(Cc1ccc(-c2ccccc2)cc1)NC(=O)c1nnc(Cl)[nH]1)C(=O)O` (stereo not drawn) [Example 4-2, 3-[N-Biphenyl-4-ylmethyl-N′-(5-chloro-4H-[1,2,4]triazole-3-carbonyl)-hydrazino]-2-hydroxy-2-methyl-propionic acid], the Ki is 126 to 1000 nM. To `COc1cc(C(=O)NN(Cc2ccc(-c3ccccc3)cc2)CC(C)(O)C(=O)O)on1` (stereo not drawn) [Example 4-3, 3-[N-Biphenyl-4-ylmethyl-N′-(3-methoxy-isoxazole-5-carbonyl)-hydrazino]-2-hydroxy-2-methyl-propionic acid] belongs 126 to 1000 nM. For the molecule `CC(O)(CN(Cc1ccc(-c2ccccc2)cc1)NC(=O)c1cnc(O)nc1)C(=O)O` (stereo not drawn) [Example 4-4, 3-[N-Biphenyl-4-ylmethyl-N′-(2-hydroxy-pyrimidine-5-carbonyl)-hydrazino]-2-hydroxy-2-methyl-propionic acid], the Ki is 12.6 to 100 nM. The figure for `CC(O)(CN(Cc1ccc(-c2ccccc2)cc1)NC(=O)c1cc(O)n[nH]1)C(=O)O` (stereo not drawn) [Example 4-5, 3-[N-Biphenyl-4-ylmethyl-N′-(5-hydroxy-2H-pyrazole-3-carbonyl)-hydrazino]-2-hydroxy-2-methyl-propionic acid] is 12.6 to 100 nM. To `CC(O)(CN(Cc1ccc(-c2ccccc2)cc1)NC(=O)c1cc(C(=O)O)n[nH]1)C(=O)O` (stereo not drawn) [Example 4-6, 5-[N′-Biphenyl-4-ylmethyl-N′-(2-carboxy-2-hydroxy-propyl)-hydrazinocarbonyl]-1H-pyrazole-3-carboxylic acid] belongs 1.26 to 10 nM; to `CN(C)C(=O)c1cc(C(=O)NN(Cc2ccc(-c3ccccc3)cc2)CC(C)(O)C(=O)O)[nH]n1` (stereo not drawn) [Example 4-7, 3-[N-Biphenyl-4-ylmethyl-N′-(5-dimethylcarbamoyl-2H-pyrazole-3-carbonyl)-hydrazino]-2-hydroxy-2-methyl-propionic acid], 12.6 to 100 nM. To `CC(O)(CN(Cc1ccc(-c2ccccc2)cc1)NC(=O)c1cc(C(=O)N2CCCC2)n[nH]1)C(=O)O` (stereo not drawn) [Example 4-8, 3-{N-Biphenyl-4-ylmethyl-N′-[5-(pyrrolidine-1-carbonyl)-2H-pyrazole-3-carbonyl]-hydrazino}-2-hydroxy-2-methyl-propionic acid] belongs 12.6 to 100 nM; to `CC(O)(CN(Cc1ccc(-c2cccc(F)c2)cc1)NC(=O)c1cc(O)no1)C(=O)O` (stereo not drawn) [Example 5, 3-[N-(3′-Fluorobiphenyl-4-ylmethyl)-N′-(3-hydroxy-isoxazole-5-carbonyl)-hydrazino]-2-hydroxy-2-methyl-propionic Acid], 1.26 to 10 nM. On to `C[C@@](O)(CN(Cc1ccc(-c2cc(Cl)ccc2F)cc1)NC(=O)c1cc(O)no1)C(=O)O` [Example 6A, (R)-3-[N-(5′-Chloro-2′-fluorobiphenyl-4-ylmethyl)-N′-(3-hydroxy-isoxazole-5-carbonyl)-hydrazino]-2-hydroxy-2-methyl-propionic acid], for which the Ki is not above 1 nM. To `C[C@@](O)(CN(Cc1ccc(-c2cccc(Cl)c2)cc1)NC(=O)c1cnn[nH]1)C(=O)O` [Example 7-1, (R)-3-[N-(3′-Chlorobiphenyl-4-ylmethyl)-N′-(3H-[1,2,3]triazole-4-carbonyl)-hydrazino]-2-hydroxy-2-methyl-propionic acid] belongs 1.26 to 10 nM; to `C[C@@](O)(CN(Cc1ccc(-c2cccc(Cl)c2)cc1)NC(=O)c1cn(O)nn1)C(=O)O` [Example 7-2, (R)-3-[N-(3′-Chlorobiphenyl-4-ylmethyl)-N′-(1-hydroxy-1H-[1,2,3]triazole-4-carbonyl)-hydrazino]-2-hydroxy-2-methyl-propionic acid], 1.26 to 10 nM; to `C[C@@](O)(CN(Cc1ccc(-c2cc(Cl)ccc2F)cc1)NC(=O)c1cn(O)nn1)C(=O)O` [Example 7-3, (R)-3-[N-(5′-Chloro-2′-fluorobiphenyl-4-ylmethyl)-N′-(1-hydroxy-1H-[1,2,3]triazole-4-carbonyl)-hydrazino]-2-hydroxy-2-methyl-propionic acid], not above 1 nM.

For the origin of these results see patent US9725448B2, “Neprilysin inhibitors” (THERAVANCE BIOPHARMA R&D IP, LLC, priority 2011, dated 2017).
